According to patent publication US20220226280A1, “COMPOSITIONS AND METHODS FOR INCREASED GLUCOSE UPTAKE AND FAT METABOLISM” (Board of Supervisors of Louisiana State University and …, priority 2017, published 2022):
Read-outs that look alike come from different tables or passages of the source.

Legend:
GLUT4 mRNA = GLUT4 mRNA induction in differentiated human adipocytes (Taqman RT-PCR); assay type: cell-based; details: human subcutaneous adipocyte cultures
Description: (§1) Gene expression was analyzed using Taqman RT-PCR and values are expressed as fold increase over untreated controls (n=5).
Gene expression was analyzed using Taqman RT-PCR and values are expressed as fold increase over untreated controls. Naringenin and Menthol v. Control: p=0.008, Naringenin and Menthol v. Naringenin: p=0.01. Naringenin and Menthol v. Menthol: p<0.001, Naringenin v. Control: p>0.05, Menthol v. Control: p>0.05.
(§2) UCP1 mRNA levels increased 4-8 fold in human subcutaneous adipocytes treated from 4-7 days with Naringenin at a concentration of 10 μM, the Cmax detected in human plasma after intake of citrus beverages (FIG. 1) (Kanaze, F. I., et al., Eur J Clin Nutr, 2007 61(4):472-7).

[1] = test system: carnitine palmitoyltransferase 1 (CPT-1); experiment: CPT-1 induction in human subcutaneous adipocyte cultures; assay type: cell-based
Description: as §1, §2

[2] = cited from earlier work
[3] = cited from earlier work; remark: listed apart in the source
HEK293 cells = details: cited from earlier work
Pgc-1α = Pgc-1α expression in human subcutaneous adipocytes; assay type: cell-based; details: Naringenin 10 μM
Description: as §1, §2

TRPM8 receptor = TRPM8 receptor expression in human adipocytes; assay type: cell-based; details: 10 μM Naringenin alone
UCP1 mRNA = UCP1 mRNA induction in differentiated human adipocytes (Taqman RT-PCR); assay type: cell-based; details: for UCP1 expression in comparison with flavonoid alone: flavonoid 5 μM combined with 20 μM menthol, 7 day treatment
Description: as §1
Gene expression was analyzed using Taqman RT-PCR and values are expressed as fold increase over untreated controls.
To determine the lowest concentrations with efficacy to induce UCP1 mRNA in human adipocytes over a 7 day time period, cells were treated with multiple concentrations of menthol combined with naringenin at 5 μM (FIG. 6).

TRPM8 = TRPM8 (Homo sapiens, UniProt Q7Z2W7); details: cited from earlier work
Ucp1 expression [4] = details: brown adipocytes from mice; cited from earlier work
UCP1 expression [5] = details: cited from earlier work

Sequence of TRPM8 (Q7Z2W7 whole entry, species assumed): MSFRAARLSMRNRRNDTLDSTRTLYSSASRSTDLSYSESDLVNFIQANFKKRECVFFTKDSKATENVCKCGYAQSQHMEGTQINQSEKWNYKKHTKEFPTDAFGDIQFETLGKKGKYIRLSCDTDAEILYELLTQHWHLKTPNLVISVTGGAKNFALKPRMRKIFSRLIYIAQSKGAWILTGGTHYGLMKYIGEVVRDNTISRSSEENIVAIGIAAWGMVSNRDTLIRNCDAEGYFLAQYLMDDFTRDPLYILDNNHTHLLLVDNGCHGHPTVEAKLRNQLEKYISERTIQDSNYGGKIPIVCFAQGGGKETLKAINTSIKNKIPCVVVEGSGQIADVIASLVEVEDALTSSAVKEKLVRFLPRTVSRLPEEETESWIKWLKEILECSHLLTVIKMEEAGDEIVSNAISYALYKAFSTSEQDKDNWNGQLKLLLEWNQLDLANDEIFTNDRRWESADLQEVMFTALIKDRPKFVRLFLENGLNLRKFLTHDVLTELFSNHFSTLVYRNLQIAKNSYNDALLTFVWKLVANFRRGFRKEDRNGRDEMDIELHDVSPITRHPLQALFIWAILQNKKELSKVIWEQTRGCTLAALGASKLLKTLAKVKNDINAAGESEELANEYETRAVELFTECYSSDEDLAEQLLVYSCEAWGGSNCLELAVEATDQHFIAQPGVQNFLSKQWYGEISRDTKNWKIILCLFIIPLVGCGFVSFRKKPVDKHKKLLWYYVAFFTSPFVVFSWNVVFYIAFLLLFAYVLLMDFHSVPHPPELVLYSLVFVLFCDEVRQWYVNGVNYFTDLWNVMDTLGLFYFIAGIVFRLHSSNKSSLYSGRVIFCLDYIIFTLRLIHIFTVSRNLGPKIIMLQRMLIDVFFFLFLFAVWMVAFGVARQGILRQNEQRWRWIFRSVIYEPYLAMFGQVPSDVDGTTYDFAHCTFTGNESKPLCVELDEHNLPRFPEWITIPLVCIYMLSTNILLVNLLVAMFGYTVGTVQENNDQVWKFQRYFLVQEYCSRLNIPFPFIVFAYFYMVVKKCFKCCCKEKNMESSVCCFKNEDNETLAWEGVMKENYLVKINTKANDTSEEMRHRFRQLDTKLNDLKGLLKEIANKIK

## O=C1C[C@@H](c2ccc(O)cc2)Oc2cc(O)cc(O)c21 (stereo in doubt) [Naringenin, 2,3-dihydro-5,7-dihydroxy-2-(4-hydroxyphenyl)-4H-1-benzopyran-4-one]
GLUT4 mRNA
  induction of brown adipocyte marker GLUT4: significantly induces
[1]
  induction of brown adipocyte marker CPT-1: significantly induces
[2]; human plasma/serum after intake of citrus beverages, read-out: Cmax
  Cmax: 10 µM
[3]; aqueous solutions
  solubility: sparingly soluble
[3]; ethanol, ether, oils (e.g., olive oil or citrus oil) and supercritical carbon dioxide
  solubility: soluble
HEK293 cells
  toxicity to cells (maximum concentration): 12.5 µM
Pgc-1α
  increase in transcriptional activator Pgc-1α: No increases were observed
TRPM8 receptor
  increase in TRPM8 receptor expression: 4 fold
UCP1 mRNA; Naringenin 10 μM, 4-7 days, human subcutaneous adipocytes
  UCP1 mRNA levels increased: 4-8 fold
UCP1 mRNA; human subcutaneous adipocyte cultures
  induction of brown adipocyte marker UCP1: significantly induces

## CC12CCC(CC1)C(C)(C)O2 [Eucalyptol]
UCP1 mRNA; eucalyptol at 100 μM and 200 μM in combination with Naringenin 5 μM, 7 d
  UCP1 mRNA expression versus naringenin alone: did not increase UCP1 mRNA expression above the level observed with naringenin alone

## COc1ccc([C@@H]2CC(=O)c3c(O)cc(O)cc3O2)cc1O [Hesperetin]
UCP1 mRNA
  UCP1 expression in comparison with flavonoid alone: No statistical difference

## O=C1NC(c2cccc([N+](=O)[O-])c2)=CCN1c1ccccc1O [Icilin]
TRPM8; TRPM8 activator
  EC50: ~500 nM
TRPM8
  potency relative to menthol: at least 100 fold
UCP1 mRNA; 0.5 μM icilin combined with Naringenin 5 μM, 7 d
  synergy for UCP1 mRNA induction: did not display synergy

## CC1CCC(C(C)C)C(O)C1 (stereo not drawn) [Menthol]
[2]; menthol, read-out: Cmax
  Cmax: 20 µM
[2]; menthol, read-out: high end of serum Cmax
  Cmax: 30 µM
Ucp1 expression [4]
  Ucp1 expression: concentration-dependent increase
UCP1 expression [5]; Menthol 100 μM overnight
  increase in UCP1 expression: 1.5 fold
UCP1 expression [5]; Menthol 100 μM, cells exposed to 26° C.
  increase in UCP1 expression: 40 fold
UCP1 mRNA; Menthol alone, human adipocyte cultures
  induction of UCP1 or other beige markers: No induction

## COc1cc(CN(CCN)C(=O)OC(C)c2ccccc2)ccc1OCc1ccccc1 (stereo not drawn) [PBMC]
UCP1 mRNA; inhibitor during 5 μM Naringenin treatment for 3 days
  Naringenin-stimulated UCP1 expression in presence of inhibitor: prevented Naringenin-stimulated UCP1 expression

## O=c1cc(-c2ccc(O)cc2)oc2cc(O)cc(O)c12 [apigenin]
UCP1 mRNA
  UCP1 expression in comparison with flavonoid alone: No statistical difference

## O=c1c(O)c(-c2ccc(O)c(O)c2)oc2cc(O)cc(O)c12 [quercetin]
UCP1 mRNA
  UCP1 expression in comparison with flavonoid alone: No statistical difference
